This experiment addresses 5-hydroxytryptamine receptor 1D (Bos taurus). As to the kind of experiment: Affinity pKi for 5-hydroxytryptamine 1D receptor was measured in calf caudate homogenate.

With `CCOC(=O)c1[nH]c2ccc(CCN3C(=O)CNC3=O)cc2c1CCN(C)C`, the inhibitory constant (Ki) was 10 µM.

The term Ki denotes the dissociation constant of the complex between target and ligand, obtained from inhibition or displacement. Read a low Ki as higher affinity.
